Positions of bridges follow the written chain, without caps; N, C: chain ends. Non-standard residues stand in square brackets, D forms with d. Residues, ends and D or L forms follow the SMILES beside them. *: point of attachment. X28 = O=C(O)CCCCCCCCCCNC(=O)CCC(=O)NCCCOCCOCCOCCCNC(=O)CCC(=O)NCCCOCCOCCOCCCN*; εLys(α-Octadecanedioyl) = O=C(O)CCCCCCCCCCCCCCCCC(=O)N[C@@H](CCCCN*)C(=O)O; Ala(1-CH2COOH-inden-3-yl) = N[C@@H](CC1=CC(CC(=O)O)c2ccccc21)C(=O)O; Trp(1-CH2COOH) = N[C@@H](Cc1cn(CC(=O)O)c2ccccc12)C(=O)O; X5 = O=C(O)CCCCCCCCCCCCCCCCC(=O)NCCCOCCOCCOCCCN*; d(cisHyp) = O=C(O)[C@H]1C[C@@H](O)CN1; Hyp = O=C(O)[C@@H]1C[C@@H](O)CN1; NHhexadecyl = CCCCCCCCCCCCCCCCN*; Undecanoyl = CCCCCCCCCCC(=O)*; NMeNle = CCCC[C@H](NC)C(=O)O; NMeA = CN[C@@H](C)C(=O)O; Aun = NCCCCCCCCCCC(=O)O; Dab = NCC[C@H](N)C(=O)O; Dap = NC[C@H](N)C(=O)O
target: T1, PD-L1 (Homo sapiens, UniProt Q9NZQ7); assay: PD-1/PD-L1 Homogenous Time-Resolved Fluorescence (HTRF) binding assay (PD-1-Ig/PD-L1-His); conditions: inhibition of PD-1-Ig binding to PD-L1-TVMV-His; value given as number; read-out: HTRF IC50
T1 construct: hPDL1(19-239)-TVMV-His; made in house; host or cells: HEK293T
Procedure, shortened: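 Inhibitors pre-incubated 15 min with PD-L1-His (10 nM final), then PD-1-Ig (20 nM final) added for 15 min in dPBS/0.1% BSA/0.05% Tween-20. Eu-cryptate anti-Ig (1 nM) and APC anti-His (20 nM) added, 30 min equilibration, 665/620 nm HTRF ratio read.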

T1 sequence (Q9NZQ7 with tags, fused parts or gaps): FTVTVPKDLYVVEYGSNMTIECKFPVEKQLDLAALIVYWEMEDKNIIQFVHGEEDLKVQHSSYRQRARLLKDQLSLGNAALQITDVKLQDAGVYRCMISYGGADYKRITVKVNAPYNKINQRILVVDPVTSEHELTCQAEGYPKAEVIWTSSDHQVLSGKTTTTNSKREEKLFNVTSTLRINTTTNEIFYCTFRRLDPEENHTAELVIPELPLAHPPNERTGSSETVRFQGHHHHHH

Q: CCCC[C@H]1C(=O)N(C)[C@@H](CCCC)C(=O)N[C@@H](CC(C)C)C(=O)N[C@H](C(=O)NCCCOCCOCCOCCCNC(=O)CCCCCCCCCCCCCCCCC(=O)O)CSCC(=O)N[C@@H](Cc2ccc(O)cc2)C(=O)N(C)[C@@H](C)C(=O)N[C@@H](CC(N)=O)C(=O)N2CCC[C@H]2C(=O)N[C@@H](CN)C(=O)N[C@@H](CCC(N)=O)C(=O)N2C[C@H](O)C[C@H]2C(=O)N[C@@H](Cc2c[nH]c3ccccc23)C(=O)N[C@@H](CO)C(=O)N[C@@H](Cc2cn(CC(=O)O)c3ccccc23)C(=O)N1C [Example 11133] ({CH2CO}-Y[NMeA]NP[Dap]Q[Hyp]WS[Trp(1-CH2COOH)][NMeNle][NMeNle]LC-X5; thioether N-14) was tested. Which IC50 did it give?
A: 1.57 µM

same assay, conditions: inhibition of PD-1-Ig binding to PD-L1-TVMV-His; value given as range class; read-out: HTRF IC50

Q: How did the IC50 turn out when CCCC[C@H]1C(=O)N(C)[C@@H](CCCC)C(=O)N[C@@H](CC(C)C)C(=O)N[C@H](C(=O)NCCCC[C@H](NC(=O)CCCCCCCCCCCCCCCCC(=O)O)C(=O)O)CSCC(=O)N[C@@H](Cc2ccc(O)cc2)C(=O)N(C)[C@@H](C)C(=O)N[C@@H](CC(N)=O)C(=O)N2CCC[C@H]2C(=O)N[C@@H](CN)C(=O)N[C@@H](CC(C)C)C(=O)N2C[C@H](O)C[C@@H]2C(=O)N[C@@H](Cc2c[nH]c3ccccc23)C(=O)N[C@@H](CCN)C(=O)N[C@@H](Cc2cn(CC(=O)O)c3ccccc23)C(=O)N1C [Example 11143] ({CH2CO}-Y[NMeA]NP[Dap]L[d(cisHyp)]W[Dab][Trp(1-CH2COOH)][NMeNle][NMeNle]LC-{εLys(α-Octadecanedioyl)}; thioether N-14) was run?
A: 0.0003 to 0.0099 µM

Q: Which IC50 does the source give for CCCCCCCCCCC(=O)NCCCC[C@H](NC(=O)[C@H](CC(=O)O)NC(=O)[C@@H]1CSCC(=O)N[C@@H](Cc2ccc(O)cc2)C(=O)N(C)[C@@H](C)C(=O)N[C@@H](CC(=O)O)C(=O)N2CCC[C@H]2C(=O)N[C@@H](Cc2cnc[nH]2)C(=O)N[C@@H](CC(C)C)C(=O)N2C[C@H](O)C[C@H]2C(=O)N[C@@H](Cc2c[nH]c3ccccc23)C(=O)N[C@@H](CO)C(=O)N[C@@H](Cc2c[nH]c3ccccc23)C(=O)N(C)[C@@H](CCCC)C(=O)N(C)[C@@H](CCCC)C(=O)N[C@@H](CCCNC(=N)N)C(=O)N1)C(N)=O [Example 11008] ({CH2CO}-Y[NMeA]DPHL[Hyp]WSW[NMeNle][NMeNle]RCDK(Undecanoyl)-NH2; thioether N-14) here?
A: 0.1 to 1.6 µM

Q: With CCCCCCCCCCCCCCCCNC(=O)CNC(=O)CNC(=O)[C@@H]1CSCC(=O)N[C@@H](Cc2ccc(O)cc2)C(=O)N(C)[C@@H](C)C(=O)N[C@@H](CC(N)=O)C(=O)N2CCC[C@H]2C(=O)N[C@@H](CCC(=O)O)C(=O)N[C@@H](CC(C)C)C(=O)N2C[C@H](O)C[C@H]2C(=O)N[C@@H](Cc2c[nH]c3ccccc23)C(=O)N[C@@H](CO)C(=O)N[C@@H](Cc2c[nH]c3ccccc23)C(=O)N(C)[C@@H](CCCC)C(=O)N(C)[C@@H](CCCC)C(=O)N[C@@H](CCCNC(=N)N)C(=O)N1 [Example 11109] ({CH2CO}-Y[NMeA]NPEL[Hyp]WSW[NMeNle][NMeNle]RCGG-NHhexadecyl; thioether N-14) as the molecule, how does the IC50 read?
A: 0.1 to 1.6 µM

Q: For CCCC[C@H]1C(=O)N(C)[C@@H](CCCC)C(=O)N[C@@H](CC(C)C)C(=O)N[C@H](C(=O)NCCCOCCOCCOCCCNC(=O)CCC(=O)NCCCOCCOCCOCCCNC(=O)CCC(=O)NCCCCCCCCCCC(=O)O)CSCC(=O)N[C@@H](Cc2ccc(O)cc2)C(=O)N(C)[C@@H](C)C(=O)N[C@@H](CC(N)=O)C(=O)N2CCC[C@H]2C(=O)N[C@@H](CN)C(=O)N[C@@H](CCC(N)=O)C(=O)N2C[C@H](O)C[C@H]2C(=O)N[C@@H](Cc2c[nH]c3ccccc23)C(=O)N[C@@H](CO)C(=O)N[C@@H](Cc2cn(CC(=O)O)c3ccccc23)C(=O)N1C [Example 11088] ({CH2CO}-Y[NMeA]NP[Dap]Q[Hyp]WS[Trp(1-CH2COOH)][NMeNle][NMeNle]LC-X28; thioether N-14), which IC50 is on record?
A: 0.1 to 1.6 µM

Q: For CCCC[C@H]1C(=O)N(C)[C@@H](CCCC)C(=O)N[C@@H](CC(C)C)C(=O)N[C@H](C(=O)NCC(=O)NCC(=O)NCCCCCCCCCCC(=O)O)CSCC(=O)N[C@@H](Cc2ccc(O)cc2)C(=O)N(C)[C@@H](C)C(=O)N[C@@H](CC(N)=O)C(=O)N2CCC[C@H]2C(=O)N[C@@H](Cc2cnc[nH]2)C(=O)N[C@@H](CCC(=O)O)C(=O)N2C[C@H](O)C[C@H]2C(=O)N[C@@H](Cc2c[nH]c3ccccc23)C(=O)N[C@@H](CCN)C(=O)N[C@@H](CC2=CC(CC(=O)O)c3ccccc32)C(=O)N1C (stereo partly drawn) [Example 11078] ({CH2CO}-Y[NMeA]NPHE[Hyp]W[Dab][Ala(1-CH2COOH-inden-3-yl)][NMeNle][NMeNle]LCGG[Aun]-OH; thioether N-14), which IC50 is on record?
A: 0.0003 to 0.0099 µM
